Test [1] has as its system PANC-1 (prancreatic carcinoma) cell line. As to the kind of experiment: CellTiter-Glo luminescent cell viability assay, PANC-1. Conditions: Homo sapiens, 72 h, % of signal of diluent-treated cultures; for viability at 4 µM: PANC-1, 4 μM; for viability at 10 µM: PANC-1, 10 μM. Format: cell-based. The protocol:
All cell lines were maintained in medium containing 1% penicillin-streptomycin (Dutscher, P06-07100) and 10% Fetal Bovine Serum (Hyclone Dutscher, RZK35922) cultured at 37° C. with 5% CO2. HepG2 (hepatocellular carcinoma), cell line was cultured in Dulbecco's modified Eagle's medium low glucose (Gibco, 21885025), Huh7 (hepatocellular carcinoma), HCT-116 (colorectal carcinoma), PANC-1 (prancreatic carcinoma) and A375 (malignant melanoma) cell lines were cultured in Dulbecco's modified Eagle's medium (Dutscher, L0103). MOLM-14 (acute myeloid leukemia) cell line was maintained in MEM alpha medium (Gibco, 22561-021). 786-0 (renal adenocarcinoma) cell lines were maintained in RPMI 1640 medium (Dutscher, L0498).
Cell viability was measured using the CellTiter-Glo® luminescent cell viability assay as described by the manufacturer (Promega, Ref G7571) using an Infinite F200Pro luminometer (Tecan). Briefly, for adherent cells, cells were plated onto 96-well plates (white with clear bottom) in 90 μL of media per well and were allowed to grow overnight before the assay. For cells growing in suspension, cells were plated onto 96-well plates 1 h before the assay.
Compounds were resuspended in H2O or DMSO and added at different concentrations to each well, and cell cultures were incubated for 72 h. Each diluent (H2O or DMSO) were used as a control, and all compounds were tested in a constant percentage of H2O or DMSO. On the day of the reading, plates are equilibrated 30 min at room temperature before the addition of 100 μL of CellTiter-Glo® and luminescence was measured using an Infinite F200Pro (Tecan). % cell viability were expressed as a percentage of the signal obtained for cell cultures treated with diluent. EC50 values were determined as the dose of compound required to reduce luminescent values to 50% of the signal obtained for cell cultures treated with diluent. The experimental data were analyzed using a computer program, Graphpad Prism v5 (GraphPad Software, Inc. La Jolla, Calif.). All points were at least done in duplicate.

Test [2] deals with HepG2 (hepatocellular carcinoma) cell line. As to the kind of experiment: CellTiter-Glo luminescent cell viability assay, HepG2. Format: cell-based, human. Conditions: Homo sapiens, HepG2, HepG, 72 h; for viability at 4 µM: compound at 4 μM; for viability at 10 µM: compound at 10 μM. Summed up:
(§1)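 72 h compound exposure, 37 °C, 5% CO2, 10% FBS medium; ATP luminescence read after 30 min RT equilibration. Viability as % of H2O/DMSO diluent control; EC50 = dose giving 50% of control signal. Duplicate points minimum.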

The subject of test [3] is MOLM-14 (acute myeloid leukemia) cell line. As to the kind of experiment: CellTiter-Glo luminescent cell viability assay, MOLM-14. Format: cell-based, human. Conditions: Homo sapiens, 72 h; for viability at 4 µM: MOLM-14, compound at 4 μM; for viability at 10 µM: MOLM-14, compound at 10 μM. The method in brief:
as §1

In test [4] the test system is A375 (malignant melanoma) cell line. As to the kind of experiment: CellTiter-Glo luminescent cell viability assay, A375. Conditions: Homo sapiens, A-375, 72 h; for viability at 4 µM: A375, compound at 4 μM; for viability at 10 µM: A375, compound at 10 μM. In kind it is cell-based, human. The method in brief: (§2)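 Cells were cultured at 37 °C, 5% CO2 with 10% FBS; adherent lines were plated overnight, suspension MOLM-14 plated 1 h before dosing. Compounds in H2O or DMSO were added at various concentrations for 72 h, and viability was read by luminescence. EC50 is the dose reducing signal to 50% of diluent control.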

Test [5] concerns Huh7 (hepatocellular carcinoma) cell line. As to the kind of experiment: CellTiter-Glo luminescent cell viability assay, Huh7. Conditions: Homo sapiens, Huh-7, 72 h; for viability at 4 µM: Huh7, compound at 4 μM; for viability at 10 µM: Huh7, compound at 10 μM. In kind it is cell-based, human. Summed up:
as §1

The subject of test [6] is HCT-116 (colorectal carcinoma) cell line. As to the kind of experiment: CellTiter-Glo luminescent cell viability assay, HCT-116. In kind it is cell-based, human. Conditions: Homo sapiens, 72 h; for viability at 4 µM: HCT-116, compound at 4 μM; for viability at 10 µM: HCT-116, compound at 10 μM. Summed up: as §2
In test [7] the test system is 786-O (renal adenocarcinoma) cell line. As to the kind of experiment: CellTiter-Glo luminescent cell viability assay, 786-O. Format: cell-based, human. To be noted: Homo sapiens, 786-0, 786-O, 72 h; for viability at 4 µM: compound at 4 μM; for viability at 10 µM: compound at 10 μM. Summed up: as §2

On to `CN(C)C1CCCN(c2c(C#N)c(NCc3ccc(Cl)cc3)nc3ccccc23)C1` (stereo not shown) [Compound 3164CN, 2-(4-chlorobenzylamino)-3-cyano-4-[3-(dimethylamino)piperidin-1-yl]quinoline], for which the viability at 4 µM in test [1] amounted to 98.7%; in test [2] it was 101%; in test [3], 113%; in test [4], 89.2%; in test [5], 91.9%; in test [6], 91.2%. Moreover, the viability at 4 µM in test [7] was 97.1%. Also, the viability at 10 µM in test [1] is 69.6%; in test [2], 52.9%; in test [3], 74.6%; in test [4], 39.3%; in test [5] it was 51.1%; in test [6], 38.4%. Moreover, the viability at 10 µM in test [7] came out at 64.1%.
`CC(C)(C)NC1CCN(c2c(C#N)c(NCc3ccccn3)nc3ccccc23)CC1` [Compound 3308CN, 2-[(pyridin-2-ylmethyl)amino]-3-cyano-4-[4-(tert-butylamino)piperidin-1-yl]quinoline]: the viability at 4 µM in test [1] was 102%; in test [2] it was 92.6%; in test [3], 85.8%; in test [4], 96.3%; in test [5], 88.6%; in test [6], 72.8%. The viability at 4 µM in test [7] was found to be 101%. Besides, the viability at 10 µM in test [1] worked out at 99.1%; in test [2], 76.5%; in test [3], 57.1%; in test [4], 67.7%; in test [5], 74.2%; in test [6] it was 32.9%. Moreover, the viability at 10 µM in test [7] is 81.1%.
For the compound `Cc1cc2c(C)nc(Nc3ccc(Nc4nc5ccccc5c(N5CCC(NC(C)(C)C)CC5)c4C#N)cc3C)nc2o1` [Compound 512CN, 2-[3-methyl-4-(4,6-dimethylfuro[2,3-d]pyrimidin-2-ylamino)phenylamino]-3-cyano-4-(4-tert-butylaminopiperidin-1-yl)quinoline], the viability at 4 µM in test [2] was 0.2%; in test [3], 0.2%; in test [4] it was 0.3%; in test [5], 0.2%; in test [6], 0.2%; in test [7] it was 0.2%. Also, the viability at 10 µM in test [2] worked out at 0.2%; in test [3], 0.3%; in test [4], 0.2%; in test [5], 0.3%; in test [6], 0.2%; in test [7] it was 0.2%.
`CC(C)(C)NC1CCN(c2c(F)c(Nc3cccc(Nc4nccc(C(F)(F)F)n4)c3)nc3ccccc23)CC1` [Compound 540F, 2-[3-(4-trifluoromethylpyrimidin-2-ylamino)phenylamino]-3-fluoro-4-(4-tert-butylaminopiperidin-1-yl)quinoline]: the viability at 4 µM in test [2] was 0.3%; in test [3], 8.8%; in test [4], 0.4%; in test [5], 43.3%; in test [6], 0.4%; in test [7], 0.8%. Moreover, the viability at 10 µM worked out at 0.2% in test [2]; 0.3% in test [3]; 0.3% in test [4]; 59.4% in test [5]; 0.3% in test [6]; 0.3% in test [7].
For the compound `N#Cc1c(NCc2ccc(Cl)cc2)nc2ccccc2c1N1CCC(Oc2ccc(Cl)cc2)C1` (stereo not shown) [Compound 3336CN, 2-(4-chlorobenzylamino)-3-cyano-4-[3-(4-chlorophenoxy)pyrrolidin1--yl]quinoline], the viability at 4 µM came to 75.4% in test [2]; 98.8% in test [3]; 106% in test [4]; 95.6% in test [5]; 99% in test [6]; 82.8% in test [7]. The viability at 10 µM amounted to 74.5% in test [2]; 89.8% in test [3]; 107% in test [4]; 93.8% in test [5]; 92% in test [6]; 79.8% in test [7].
With `N#Cc1c(NCc2ccc(Cl)cc2)nc2ccccc2c1N1CCC(Oc2ccc(F)cc2)CC1` [Compound 2942CN, 2-(4-chlorobenzylamino)-3-cyano-4-[4-(4-fluorophenoxy)piperidin-1-yl]quinoline], the viability at 4 µM stood at 99.1% in test [2]; 98.2% in test [3]; 101% in test [4]; 94.3% in test [5]; 91% in test [6]; 87.7% in test [7]. Besides, the viability at 10 µM was found to be 75.3% in test [2]; 88.1% in test [3]; 94.9% in test [4]; 87.9% in test [5]; 75.1% in test [6]; 81.3% in test [7].
`N#Cc1c(NCc2ccc(Cl)cc2)nc2ccccc2c1N1CCC(Oc2ccc(F)cc2)C1` (stereo not shown) [Compound 3338CN, 2-(4-chlorobenzylamino)-3-cyano-4-[3-(4-fluorophenoxy)pyrrolidin-1-yl]quinoline]: the viability at 4 µM in test [2] came out at 98.8%; in test [3], 112%; in test [4], 94.9%; in test [5] it was 96.9%; in test [6] it was 94.3%; in test [7], 93.3%. Also, the viability at 10 µM was determined as 92.2% in test [2]; 107% in test [3]; 93.4% in test [4]; 101% in test [5]; 87.6% in test [6]; 59.4% in test [7].
As for `N#Cc1c(NCc2ccc(Cl)cc2)nc2ccccc2c1N1CCCC(Oc2ccc(F)cc2)C1` (stereo not shown) [Compound 3238CN, 2-(4-chlorobenzylamino)-3-cyano-4-[3-(4-fluorophenoxy)piperidin-1-yl]quinoline], the viability at 4 µM in test [2] was 95.9%; in test [3], 101%; in test [4] it was 106%; in test [5] it was 97.7%; in test [6], 97.8%; in test [7] it was 90.7%. Also, the viability at 10 µM in test [2] was 90.8%; in test [3], 91.6%; in test [4], 102%; in test [5], 93.7%; in test [6], 85.1%; in test [7] it was 86.1%.
With `COc1cc(C)nc(Nc2ccc(Nc3nc4ccccc4c(N4CCC(NC(C)(C)C)CC4)c3C#N)cc2C)n1` [Compound 510CN, 2-[4-(4-methyl-6-methoxypyrimidin-2-ylamino)-3-methylphenylamino]-3-cyano-4-(4-tert-butylaminopiperidin-1-yl)quinoline], the viability at 4 µM was 54.6% in test [2]; 74.5% in test [3]; 57.4% in test [4]; 62.6% in test [5]; 24.8% in test [6]; 2.8% in test [7]. In addition, the viability at 10 µM amounted to 0.1% in test [2]; 0.2% in test [3]; 0.1% in test [4]; 0.3% in test [5]; 0.1% in test [6]; 0.1% in test [7].

These data come from patent US10577362B2, “Substituted 2, 4-diamino-quinoline derivatives for use in the treatment of proliferative diseases” (GENOSCIENCE PHARMA, priority 2016, dated 2020).
